Assay results: ChEMBL document CHEMBL5230118, “Therapeutic potential of uracil and its derivatives in countering pathogenic and physiological disorders” (Eur J Med Chem, 2020)

Tests used:
[1] = Bioavailability in human; format: ADME, organism-based; settings: in vivo
[2] = system: Human alphaherpesvirus 3; assay: Antiviral activity against clinical isolate VZV; format: functional, organism-based
[3] = system: DLD-1; assay: Antiproliferative activity against human DLD-1 cells assessed as cell growth inhibition; format: functional, cell-based
[4] = system: COLO-320-HSR; assay: Antiproliferative activity against human COLO 320HSR cells assessed as cell growth inhibition; format: functional, cell-based
[5] = system: HT-29; assay: Antiproliferative activity against human HT-29 cells assessed as cell growth inhibition; format: functional, cell-based
[6] = in vivo; settings: mouse

SMILES: Cn1c(=O)cc(N2CCC[C@@H](N)C2)n(Cc2ccccc2C#N)c1=O [ALOGLIPTIN]
- bioavailability [1]: 75%

SMILES: CC#Cc1cn([C@@H]2O[C@H](CO)[C@@H](O)[C@@H]2O)c(=O)[nH]c1=O [NETIVUDINE]
- IC50 [2]: 1 µM
- bioavailability [1]: 25%

SMILES: O=c1[nH]c(=O)n([C@@H]2O[C@H](CO)[C@@H](O)[C@@H]2O)cc1F
- IC50 [3]: 0.052 µM
- IC50 [4]: 0.023 µM
- IC50 [5]: 0.041 µM

SMILES: O=c1[nH]cc(F)c(=O)[nH]1 [FLUOROURACIL]
- half-life [6]: 16 min
